{"source": "patent US20190192524A1", "about": "“Modulators of Caspase-6” (The University of British Columbia, priority 2014, published 2019)", "key": {"[1]": {"target": "T1, human caspase 6 lacking the pro-domain (Homo sapiens, UniProt P55212)", "T1 sequence (P55212 with tags, fused parts or gaps)": "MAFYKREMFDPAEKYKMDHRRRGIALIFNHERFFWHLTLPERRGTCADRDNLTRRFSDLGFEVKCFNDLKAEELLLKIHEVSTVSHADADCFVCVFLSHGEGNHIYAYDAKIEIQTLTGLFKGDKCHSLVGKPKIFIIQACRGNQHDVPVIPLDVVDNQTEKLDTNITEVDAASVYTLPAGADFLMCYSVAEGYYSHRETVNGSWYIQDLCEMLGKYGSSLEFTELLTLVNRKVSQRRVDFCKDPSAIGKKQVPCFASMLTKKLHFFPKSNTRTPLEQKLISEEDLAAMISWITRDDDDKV", "test": "Intracellular Htt cleavage by Western blot in co-transfected COS-7 cells", "format": "cell-based", "parameters": "DDK-tag (C); expressed in transfected cells; host or cells: COS-7", "experimental": "COS-7 cells were co-transfected with the 4c htt fragment and the human caspase-6 lacking the pro-domain which leads to fast autoactivation of the caspase-6 enzyme and the generation of the 586 aa Htt cleavage fragment. The co-transfected cells were exposed to either 10 uM of the PG3d compound, 3 uM of the Q-VD-Oph pan-caspase inhibitor or were left untreated. Non-transfected cells were included as a negative control and the purified 586 aa Htt fragment was included as a positive control. Cell lysates were subjected to Western blotting and the 586AA fragment generated intracellularly was detected with Htt antibody 2166 (Millipore). Caspase-6 expression and activation was assessed by Western blotting using antibody HD91 (Ehrnhoefer et al, HMG, 2014. 23(3):717-29).\nCOS-7 cells were co-transfected with the 4c htt fragment and the human caspase-6 lacking the pro-domain which leads to fast autoactivation of the caspase-6 enzyme and the generation of the 586 aa Htt cleavage fragment. […] Non-transfected cells were included as a negative control and the purified 586 aa Htt fragment was included as a positive control. […] The cell lysates were also assayed for the levels of active caspase 6 enzyme as shown in the lower panel of FIG. 5B."}, "[2]": {"target": "T1, human caspase 6 lacking the pro-domain", "test": "Lamin A cleavage in HEK 293 cells overexpressing caspase-6 (Mesoscale ELISA)", "format": "cell-based", "parameters": "The transfected DNA encodes amino acids 24-293 of the human caspase 6 enzyme with a C-terminal DDK tag; DDK-tag (C); expressed in transfected cells; host or cells: HEK 293", "settings": "24 hr incubation; cleaved lamin A quantified; read-out: HEK intracellular IC50", "experimental": "HEK 293 cells were grown in DMEM supplemented with 10% fetal bovine serum, 1%/penicillin/streptomycin and 0.5% glutamine. Transfections were performed using the Fugene reagent (Roche) according to manufacturer's instructions. The transfected DNA encodes amino acids 24-293 of the human caspase 6 enzyme with a C-terminal DDK tag under the control of a CMV promoter (vector pCMVSport6) (SEQ ID NO: 2). The transfected HEK 293 were used to measure the intracellular activity of caspase-6 as evidenced by cleavage of the lamin substrate (described below).\nThe quantitative assessment of intracellular lamin cleavage in caspase-6 transfected HEK 293 cells was done as described previously (Ehrnhoefer et al. PLoS One, 2011. 6(11):e27680) Briefly, HEK 293 cell lysates were adjusted to 1 μg protein/μl in lysis buffer, diluted to 0.2 μg/μl in PBS and 5 μl were added to a Multi-Array high-bind 96 well plate (Mesoscale discovery). After incubation at room temperature for 1 h, the wells were blocked by adding 150 μl 5% BSA in PBS, followed by further incubation at room temperature for 1 h. Wells were then washed 3× with 150 μl PBS+0.05% Tween, and 25 μl antibody mix was added (Cell signaling #2036 at 1:100 dilution, Mesoscale discovery goat-anti-rabbit sulfo-tag at 1:500 dilution in PBS with 1% BSA). After lh incubation at room temperature, the wells were washed 3× with 150 μl PBS+0.05% Tween, and 150 μl/well 2× reading reagent (Mesoscale discovery) was added. The plate was read on a Sector imager 6000 (Mesoscale discovery).\nThe PG3 analog compounds were also tested for their ability to inhibit caspase-6 within cultured cells. HEK 293 cells were transfected with human caspase 6 lacking the pro-domain and were incubated with increasing concentrations of the PG3 analogs. After a 24 hr incubation, the excess compound was washed away, the cells were lysed and the amount of cleaved lamin A protein was quantified by the Mesoscale ELISA method."}}, "note": "pIC50: −log10 of the molar value."}
{"compound": "O=c1oc(C#Cc2ccccc2)nc(O)c1Cc1ccccc1", "note": "[PG-3d, 5-Benzyl-4-hydroxy-2-(phenylethynyl)-6H-1,3-oxazin-6-one]", "values": [{"measurement": "level of active caspase 6 enzyme", "setting": "[1]; 10 uM compound", "value": "decreased amount of active enzyme"}, {"measurement": "generation of the 586 aa Htt cleavage fragment", "setting": "[1]; 10 uM compound vs untreated cells", "value": "significant reduction"}, {"measurement": "pIC50", "setting": "[2]", "value": 5.59}]}
